Measurements as given in publication PMC10815823 (Genes, 2024).
Like-named read-outs stand apart in the source and are kept apart here.

Key:
[1] = single-oral-dose pharmacokinetic study, plasma AVA and metabolite concentrations in pediatric hypercholesterolemia stratified by SLCO1B1 c.521T>C genotype; format: in vivo, human; settings: for AUC(0-t) / Cmax / Tmax: human, plasma, 10 mg; for Tmax: median (range)
Description: A screening physical examination (including sexual maturity rating via Tanner Staging) was performed prior to ingesting AVA. […] Samples were immediately centrifuged at 4 °C for 10 min at 600 g. Plasma was removed and stored at -80 °C until the analysis. […] All analytical reference compounds were purchased from Toronto Research Chemicals at their highest purity. Plasma proteins were precipitated with acetonitrile and centrifuged, and the filtrates were transferred to a new set of clean, labeled microcentrifuge tubes. An aliquot of the extracts was then transferred to a 96-well plate and analyzed by ultra-performance liquid chromatography tandem mass spectrometry (UPLC-MS/MS) with positive-ion electrospray ionization using multiple-reaction monitoring (MRM). […] Gradient elution was optimized with an acetonitrile-water-MeOH gradient: mobile phase A: water: MeOH: acetic acid (v/v/v), 90:10:0.1; mobile phase B: acetonitrile: methanol: acetic acid (v/v/v), 60:40:0.1. […] All the data acquisition and analysis were carried out by Masslynx 4.2 software. […] The individual peak plasma concentration (Cmax) and time to maximal concentration (Tmax) were obtained by direct examination of the plasma AVA concentration versus hour profile. The area under the plasma concentration versus time curve during the sampling period (AUC0-n) was calculated using the mixed log-linear method, where n refers to the final sampling time with quantifiable plasma AVA or AVA metabolite concentrations. […] Pharmacokinetic parameters were examined in JMP® version 14 (SAS, Cary, NC, USA). Pharmacokinetic parameters reflective of plasma AVA concentrations (Cmax, AUC0-n) and the SLCO1B1 genotype ([…] vs. T/C and C/C) were dependent variables and independent variables, respectively. The Kruskal-Wallis test was leveraged to compare the pharmacokinetic parameters related to genotype groups and demographics. Linear regression to examine the association between the AVA AUCn and […] genotype groups, adjusting for BMI z-score, sex and Tanner score, was performed. […] A single Tanner score was computed by averaging each participant's Tanner breast/testicular and Tanner public hair stage scores. AVA AUC0-24 was first modeled as a function of BMI z-score, sex and Tanner score to estimate the proportion of variability that could be accounted for by these participant characteristics. Then, the count of […] alleles was added to the model to estimate the additional variability accounted for. […] Therefore, the Cmax and AUC were normalized to a dose for each individual participant by dividing the exposure parameter value by the actual mg/kg dose received, then multiplying by the mean mg/kg dose for the entire cohort (e.g., participant AUC (ng·hr/mL)/participant dose (mg/kg) × cohort mean dose (mg/kg)).

[2] = pediatric cohorts; cited from earlier work
[3] = female, oral, Table S3, Gender: Female, mean (± SD), read-out: AUC0-24
[4] = oral, Table S1, entire cohort, median (IQR)
[5] = oral, Table S1, entire cohort, median (IQR), read-out: AUC 0-24
[6] = oral, Table S3, Ethnicity: African-American, mean (± SD), read-out: AUC0-24
[7] = oral, Table S3, Ethnicity: White, Hispanic, mean (± SD), read-out: AUC0-24
[8] = oral, Table S3, Ethnicity: White, non-Hispanic, mean (± SD), read-out: AUC0-24
[9] = oral, Table S3, Tanner Breast/Testicular Stage 2, mean (± SD), read-out: AUC0-24
[10] = oral, Table S3, Tanner Breast/Testicular Stage 3, read-out: AUC0-24
[11] = oral, Table S3, Tanner Breast/Testicular Stage 4, mean (± SD), read-out: AUC0-24
[12] = oral, Table S3, Tanner Breast/Testicular Stage 5, mean (± SD), read-out: AUC0-24
[13] = oral, Table S3, Tanner Pubic Stage 1, read-out: AUC0-24
[14] = oral, Table S3, Tanner Pubic Stage 2, mean (± SD), read-out: AUC0-24
[15] = oral, Table S3, Tanner Pubic Stage 3, read-out: AUC0-24
[16] = oral, Table S3, Tanner Pubic Stage 4, mean (± SD), read-out: AUC0-24
[17] = oral, Table S3, Tanner Pubic Stage 5, mean (± SD), read-out: AUC0-24
[18] = po, SLCO1B1 c.521C/C (n = 2), single oral 10 mg dose, mean (±SD)
[19] = po, SLCO1B1 c.521C/C (n = 2), single oral 10 mg dose
[20] = po, SLCO1B1 c.521C/C (n = 2), single oral 10 mg dose, mean (±SD), read-out: AUC0–24
[21] = po, SLCO1B1 c.521T/C (n = 13), single oral 10 mg dose, mean (±SD)
[22] = po, SLCO1B1 c.521T/C (n = 13), single oral 10 mg dose
[23] = po, SLCO1B1 c.521T/C (n = 13), single oral 10 mg dose, mean (±SD), read-out: AUC0–24
[24] = po, SLCO1B1 c.521T/T (n = 13), single oral 10 mg dose, mean (±SD)
[25] = po, SLCO1B1 c.521T/T (n = 13), single oral 10 mg dose
[26] = po, SLCO1B1 c.521T/T (n = 13), single oral 10 mg dose, mean (±SD), read-out: AUC0–24
[27] = po, entire cohort (n = 28), median (IQR), single oral 10 mg dose
[28] = po, entire cohort (n = 28), median (IQR), single oral 10 mg dose, read-out: AUC0–24
[29] = male, oral, Table S3, Gender: Male, mean (± SD), read-out: AUC0-24

AUC(0-t) [1, 3]	Cmax [1, 4]	AUC(0-t) [1, 5]	AUC(0-t) [1, 6]	AUC(0-t) [1, 7]	AUC(0-t) [1, 8]	AUC(0-t) [1, 9]	AUC(0-t) [1, 10]	AUC(0-t) [1, 11]	AUC(0-t) [1, 12]	AUC(0-t) [1, 13]	AUC(0-t) [1, 14]	AUC(0-t) [1, 15]	AUC(0-t) [1, 16]	AUC(0-t) [1, 17]	Cmax [1, 18]	Tmax [1, 19]	AUC(0-t) [1, 20]	Cmax [1, 21]	Tmax [1, 22]	SMILES	also measured
18 ng·h/mL	1.1 ng/mL	14.5 ng·h/mL	16.7 ng·h/mL	17.2 ng·h/mL	16.4 ng·h/mL	31.9 ng·h/mL	23.4 ng·h/mL	13.4 ng·h/mL	12.9 ng·h/mL	39.2 ng·h/mL	32.7 ng·h/mL	12.7 ng·h/mL	8.5 ng·h/mL	13.7 ng·h/mL	1.9 ng/mL	7 h	31 ng·h/mL	1.3 ng/mL	5 h	CC(C)c1c(C(=O)Nc2ccccc2O)c(-c2ccccc2)c(-c2ccc(F)cc2)n1CCC1CC(O)CC(=O)O1 (stereo not shown) [2-Hydroxy Atorvastatin Lactone, 2-hydroxyatorvastatin lactone]	effect of SLCO1B1 c.521T>C genotype on exposure ([1]; Kruskal–Wallis across genotype groups): not affected by genotype; AUC(0-t) [1, 23]: 17.4 ng·h/mL; Cmax [1, 24]: 1 ng/mL; Tmax [1, 25]: 7 h; AUC(0-t) [1, 26]: 14 ng·h/mL; Cmax [1, 27]: 1.1 ng/mL; AUC(0-t) [1, 28]: 14.5 ng·h/mL; AUC(0-t) [1, 29]: 15.7 ng·h/mL
7.3 ng·h/mL	0.7 ng/mL	6.4 ng·h/mL	6.1 ng·h/mL	7.6 ng·h/mL	6.9 ng·h/mL	6 ng·h/mL	6 ng·h/mL	4.7 ng·h/mL	8.1 ng·h/mL	5.1 ng·h/mL	6.7 ng·h/mL	4.1 ng·h/mL	3.6 ng·h/mL	8 ng·h/mL	1.3 ng/mL	5 h	10.8 ng·h/mL	0.8 ng/mL	3 h	CC(C)c1c(C(=O)Nc2ccccc2O)c(-c2ccccc2)c(-c2ccc(F)cc2)n1CC[C@@H](O)C[C@@H](O)CC(=O)O [2-Hydroxy Atorvastatin, 2-hydroxyatorvastatin]	AUC(0-t) [1, 23]: 7.5 ng·h/mL; Cmax [1, 24]: 0.7 ng/mL; Tmax [1, 25]: 2 h; AUC(0-t) [1, 26]: 6.2 ng·h/mL; Cmax [1, 27]: 0.7 ng/mL; AUC(0-t) [1, 28]: 6.4 ng·h/mL; AUC(0-t) [1, 29]: 7 ng·h/mL
12.1 ng·h/mL	0.9 ng/mL	8.7 ng·h/mL	11.4 ng·h/mL	13.2 ng·h/mL	10 ng·h/mL	23.3 ng·h/mL	17.3 ng·h/mL	7.9 ng·h/mL	8.5 ng·h/mL	15.4 ng·h/mL	27.7 ng·h/mL	7.8 ng·h/mL	5 ng·h/mL	8.9 ng·h/mL	1.5 ng/mL	6 h	27.8 ng·h/mL	1.1 ng/mL	4 h	CC(C)c1c(C(=O)Nc2ccccc2)c(-c2ccccc2)c(-c2ccc(F)cc2)n1CC[C@@H]1C[C@@H](O)CC(=O)O1 [Atorvastatin Lactone, atorvastatin lactone]	mean Cmax fold higher, c.521C/C relative to c.521T/T ([1]; c.521C/C (n = 2) vs c.521T/T (n = 13)): 2.1 fold; mean Cmax fold higher, c.521T/C relative to c.521T/T ([1]; c.521T/C (n = 13) vs c.521T/T (n = 13)): 1.6 fold; mean AUC0–24 fold higher, c.521T/C relative to c.521T/T ([1]; c.521T/C vs reference genotype): 1.8 fold; AUC(0-t) [1, 23]: 13 ng·h/mL; Cmax [1, 24]: 0.7 ng/mL; Tmax [1, 25]: 2.5 h; AUC(0-t) [1, 26]: 7.2 ng·h/mL; Cmax [1, 27]: 0.9 ng/mL; AUC(0-t) [1, 28]: 8.7 ng·h/mL; AUC(0-t) [1, 29]: 10.7 ng·h/mL
–	–	–	–	–	–	–	–	–	–	–	–	–	–	–	–	–	–	–	–	CC(C)c1c(C(=O)Nc2ccccc2)c(-c2ccccc2)c(-c2ccc(F)cc2)n1CC[C@@H](O)C[C@@H](O)CC(=O)O [Atorvastatin, reference compound]	participants with secondary peaking suggestive of entero-hepatic recirculation ([1]; 12 of 28 participants): 43%; adverse events ([1]; single oral 10 mg dose, 28 participants): No adverse events were reported
–	–	–	–	–	–	–	–	–	–	–	–	–	–	–	–	–	–	–	–	CC[C@H](C)C(=O)O[C@H]1C[C@H](O)C=C2C=C[C@H](C)[C@H](CC[C@@H](O)C[C@@H](O)CC(=O)O)[C@H]21 [pravastatin]	within-c.521T>C-genotype variability in plasma statin concentration [2]: 8- to 17 fold
